Assay results reported in publication PMC10247784, “Physiological activation of human and mouse bitter taste receptors by bile acids” (Communications Biology, 2023).
Values joined by “and” are separate entries in the source; they are usually repeats but may differ in a detail not shown here. Identical values can stand only once.

Target: T1, human TAS2R4 (Homo sapiens, UniProt Q9NYW5)
T1 construct: expressed in transfected cells; host or cells: HEK293T-Gα16gust44
T1 sequence (Q9NYW5 1-299): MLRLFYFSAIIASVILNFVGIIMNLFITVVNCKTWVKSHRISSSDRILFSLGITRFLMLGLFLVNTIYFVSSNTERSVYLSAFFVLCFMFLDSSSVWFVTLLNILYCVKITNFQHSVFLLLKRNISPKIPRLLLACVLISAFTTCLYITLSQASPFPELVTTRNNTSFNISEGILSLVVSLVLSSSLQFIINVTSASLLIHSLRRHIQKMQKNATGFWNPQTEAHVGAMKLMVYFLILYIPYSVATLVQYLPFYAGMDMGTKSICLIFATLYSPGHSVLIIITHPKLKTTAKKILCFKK
Experiment: Calcium imaging assay (FLIPR), HEK293T-Gα16gust44 cells transfected with human TAS2R4
Type: cell-based
Method in brief: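 Read-out is Fluo-4 fluorescence change (ΔF/F) after automated application of bile acids (DMSO stocks) to transiently transfected cells. Values are corrected for empty-vector cells and normalized to buffer. Dose-response from three independent experiments in duplicate; threshold concentration set at p < 0.01 versus mock.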

C[C@H](CCC(=O)O)[C@H]1CC[C@H]2[C@@H]3[C@@H](O)C[C@@H]4C[C@H](O)CC[C@]4(C)[C@H]3CC[C@]12C [Ursodeoxycholic Acid, ursodeoxycholic acid]
Efficacy = maximal amplitude (ΔF/F) (TAS2R4, bile acids, mean): 0.07236 | Efficacy (maximal amplitude ΔF/F), individual data points (TAS2R4, bile acids, single replicates, listed as UDCA): 0.07954 and 0.05089 and 0.08665 | Δ F/F (TAS2R4, conc. 0,01 mM): 0.05163 | Δ F/F (TAS2R4, conc. 0,03 mM): 0.07236 | Δ F/F (TAS2R4, conc. 0,00003 mM): 0.00102 | Δ F/F (TAS2R4, conc. 0,0001 mM): 0.006537 | Δ F/F (TAS2R4, conc. 0,0003 mM): -0.0004307 | Δ F/F (TAS2R4, conc. 0,001 mM): 0.008217 | Δ F/F (TAS2R4, conc. 0,003 mM): 0.01726 | RLU, fluorescence trace (Time (s) 0): 0 RLU | RLU, fluorescence trace (Time (s) 2): -16.0588 RLU | RLU, fluorescence trace (Time (s) 4): 1.8572 RLU | RLU, fluorescence trace (Time (s) 6): -24.0432 RLU | RLU, fluorescence trace (Time (s) 8): -15.0627 RLU | RLU, fluorescence trace (Time (s) 12): -11.1029 RLU | RLU, fluorescence trace (Time (s) 14): -16.031 RLU | RLU, fluorescence trace (Time (s) 16): -22.0279 RLU | RLU, fluorescence trace (Time (s) 18): -16.0557 RLU | RLU, fluorescence trace (Time (s) 18.766 (TCA, TLCA: 18.782)): -31 RLU | RLU, fluorescence trace (Time (s) 20.781 (TCA, TLCA: 20.782)): -77.5296 RLU | RLU, fluorescence trace (Time (s) 22.781 (TCA, TLCA: 22.782)): -20.8274 RLU | RLU, fluorescence trace (Time (s) 24.781 (TCA, TLCA: 24.782)): 13.5346 RLU | RLU, fluorescence trace (Time (s) 26.781 (TCA, TLCA: 26.782)): 47.9642 RLU | RLU, fluorescence trace (Time (s) 28.781 (TCA, TLCA: 28.782)): 73.9776 RLU | RLU, fluorescence trace (Time (s) 30.781 (TCA, TLCA: 30.782)): 141.824 RLU | RLU, fluorescence trace (Time (s) 32.781 (TCA, TLCA: 32.782)): 170.961 RLU | RLU, fluorescence trace (Time (s) 34.781 (TCA, TLCA: 34.782)): 211.304 RLU | RLU, fluorescence trace (Time (s) 36.781 (TCA, TLCA: 36.782)): 286.431 RLU | RLU, fluorescence trace (Time (s) 38.781 (TCA, TLCA: 38.782)): 316.3 RLU | RLU, fluorescence trace (Time (s) 40.781 (TCA, TLCA: 40.782)): 327.594 RLU | RLU, fluorescence trace (Time (s) 42.781 (TCA, TLCA: 42.782)): 352.031 RLU | RLU, fluorescence trace (Time (s) 44.781 (TCA, TLCA: 44.782)): 380.127 RLU | RLU, fluorescence trace (Time (s) 46.781 (TCA, TLCA: 46.782)): 405.893 RLU | RLU, fluorescence trace (Time (s) 48.781 (TCA, TLCA: 48.782)): 396.948 RLU | RLU, fluorescence trace (Time (s) 50.781 (TCA, TLCA: 50.782)): 411.019 RLU | RLU, fluorescence trace (Time (s) 52.781 (TCA, TLCA: 52.782)): 398.089 RLU | RLU, fluorescence trace (Time (s) 54.781 (TCA, TLCA: 54.782)): 413.206 RLU | RLU, fluorescence trace (Time (s) 56.781 (TCA, TLCA: 56.782)): 434.735 RLU | RLU, fluorescence trace (Time (s) 58.781 (TCA, TLCA: 58.782)): 418.956 RLU | RLU, fluorescence trace (Time (s) 60.781 (TCA, TLCA: 60.782)): 389 RLU | RLU, fluorescence trace (Time (s) 62.781 (TCA, TLCA: 62.782)): 407.272 RLU | RLU, fluorescence trace (Time (s) 64.781 (TCA, TLCA: 64.782)): 410.187 RLU | RLU, fluorescence trace (Time (s) 66.781 (TCA, TLCA: 66.782)): 395 RLU | RLU, fluorescence trace (Time (s) 68.781 (TCA, TLCA: 68.782)): 396.708 RLU | RLU, fluorescence trace (Time (s) 70.781 (TCA, TLCA: 70.782)): 394.232 RLU | RLU, fluorescence trace (Time (s) 72.781 (TCA, TLCA: 72.782)): 389.174 RLU | RLU, fluorescence trace (Time (s) 74.781 (TCA, TLCA: 74.782)): 367.247 RLU | RLU, fluorescence trace (Time (s) 76.781 (TCA, TLCA: 76.782)): 368.083 RLU | RLU, fluorescence trace (Time (s) 78.781 (TCA, TLCA: 78.782)): 368.91 RLU | RLU, fluorescence trace (Time (s) 80.781 (TCA, TLCA: 80.782)): 354 RLU | RLU, fluorescence trace (Time (s) 82.781 (TCA, TLCA: 82.782)): 345.234 RLU | RLU, fluorescence trace (Time (s) 84.781 (TCA, TLCA: 84.782)): 349.472 RLU | RLU, fluorescence trace (Time (s) 86.781 (TCA, TLCA: 86.782)): 337.61 RLU | RLU, fluorescence trace (Time (s) 88.781 (TCA, TLCA: 88.782)): 322.366 RLU | RLU, fluorescence trace (Time (s) 90.781 (TCA, TLCA: 90.782)): 310.929 RLU | RLU, fluorescence trace (Time (s) 92.781 (TCA, TLCA: 92.782)): 320.728 RLU | RLU, fluorescence trace (Time (s) 94.781 (TCA, TLCA: 94.782)): 299.044 RLU | RLU, fluorescence trace (Time (s) 96.781 (TCA, TLCA: 96.782)): 305.557 RLU | RLU, fluorescence trace (Time (s) 98.781 (TCA, TLCA: 98.782)): 298.819 RLU | RLU, fluorescence trace (Time (s) 100.781 (TCA, TLCA: 100.782)): 293.739 RLU | RLU, fluorescence trace (Time (s) 102.781 (TCA, TLCA: 102.782)): 282.259 RLU | RLU, fluorescence trace (Time (s) 104.781 (TCA, TLCA: 104.782)): 266.754 RLU | RLU, fluorescence trace (Time (s) 106.781 (TCA, TLCA: 106.782)): 276.382 RLU | RLU, fluorescence trace (Time (s) 108.781 (TCA, TLCA: 108.782)): 259.159 RLU | RLU, fluorescence trace (Time (s) 110.781 (TCA, TLCA: 110.782)): 276.445 RLU | RLU, fluorescence trace (Time (s) 112.781 (TCA, TLCA: 112.782)): 267.37 RLU | RLU, fluorescence trace (Time (s) 114.781 (TCA, TLCA: 114.782)): 253.353 RLU | RLU, fluorescence trace (Time (s) 116.781 (TCA, TLCA: 116.782)): 251.234 RLU | RLU, fluorescence trace (Time (s) 118.781 (TCA, TLCA: 118.782)): 253.766 RLU | RLU, fluorescence trace (Time (s) 120.781 (TCA, TLCA: 120.782)): 230.621 RLU | RLU, fluorescence trace (Time (s) 122.781 (TCA, TLCA: 122.782)): 238.721 RLU | RLU, fluorescence trace (Time (s) 124.781 (TCA, TLCA: 124.782)): 218.638 RLU | RLU, fluorescence trace (Time (s) 126.781 (TCA, TLCA: 126.782)): 215.286 RLU | RLU, fluorescence trace (Time (s) 128.781 (TCA, TLCA: 128.782)): 226.16 RLU | RLU, fluorescence trace (Time (s) 130.781 (TCA, TLCA: 130.782)): 229.593 RLU | RLU, fluorescence trace (Time (s) 132.781 (TCA, TLCA: 132.782)): 216.307 RLU | RLU, fluorescence trace (Time (s) 134.781 (TCA, TLCA: 134.782)): 209.298 RLU | RLU, fluorescence trace (Time (s) 136.781 (TCA, TLCA: 136.782)): 214.712 RLU | RLU, fluorescence trace (Time (s) 137.547): 211.548 RLU | RLU, fluorescence trace (Time (s) 143.547): 195.123 RLU | RLU, fluorescence trace (Time (s) 149.547): 191.876 RLU | RLU, fluorescence trace (Time (s) 155.547): 182.53 RLU | RLU, fluorescence trace (Time (s) 161.547): 172.093 RLU | RLU, fluorescence trace (Time (s) 167.547): 173.823 RLU | RLU, fluorescence trace (Time (s) 173.547): 178.999 RLU | RLU, fluorescence trace (Time (s) 179.547): 149.456 RLU | RLU, fluorescence trace (Time (s) 185.547): 128.186 RLU | RLU, fluorescence trace (Time (s) 191.547): 150.92 RLU | RLU, fluorescence trace (Time (s) 197.547): 155.041 RLU | RLU, fluorescence trace (Time (s) 203.547): 152.046 RLU | RLU, fluorescence trace (Time (s) 209.547): 155.822 RLU | RLU, fluorescence trace (Time (s) 215.547): 146.722 RLU | RLU, fluorescence trace (Time (s) 221.547): 144.396 RLU | RLU, fluorescence trace (Time (s) 227.547): 187.605 RLU | RLU, fluorescence trace (Time (s) 233.547): 160.672 RLU | RLU, fluorescence trace (Time (s) 239.547): 166.203 RLU | RLU, fluorescence trace (Time (s) 245.547): 147.048 RLU | RLU, fluorescence trace (Time (s) 293.547): 162.322 RLU | RLU, fluorescence trace (Time (s) 299.547): 130.446 RLU | RLU, fluorescence trace (Time (s) 305.547): 132.691 RLU | RLU, fluorescence trace (Time (s) 311.547): 138.907 RLU | RLU, fluorescence trace (Time (s) 317.547): 111.452 RLU | RLU, fluorescence trace (Time (s) 323.547): 135.942 RLU | RLU, fluorescence trace (Time (s) 329.547): 131.935 RLU | RLU, fluorescence trace (Time (s) 335.547): 149.888 RLU | RLU, fluorescence trace (Time (s) 341.547): 132.356 RLU | RLU, fluorescence trace (Time (s) 347.547): 117.981 RLU | RLU, fluorescence trace (Time (s) 353.547): 135.981 RLU | RLU, fluorescence trace (Time (s) 359.547): 144.823 RLU | Activation threshold concentration TAS2R4 (lowest concentration with significantly increased fluorescence vs empty vector (p < 0.01)): 3 µM
